Literature values, collected in patent publication US20090285840A1, “METHODS FOR TREATING PATHOLOGICAL NEOVASCULARIZATION” (New York Society for the Ruptured and Crippled Maintaining …, priority 2008, published 2009).

Test system: human ADAM9 mRNA
Set-up: concentration or dose not given beside the values
Details: percentage inhibition data reported in US 2004/0092466, Example 15; target SEQ ID NO 94; cited from earlier work

Substance	% INHIB
23 (CCTCTTCATCCTTTGCAGTT; listed as DNA, chemistry not given here) [compound 23]	84%
24 (GTTTCCATTGGTCCAAATCT; listed as DNA, chemistry not given here) [compound 24]	77%
25 (CAAGATTATGACCCAATTCA; listed as DNA, chemistry not given here) [compound 25]	69%
26 (GAATATTAAGAAGGCAGTTT; listed as DNA, chemistry not given here) [compound 26]	27%
27 (CTGCTTTATTATAGCCATGA; listed as DNA, chemistry not given here) [compound 27]	85%
28 (ATGACTGAATAAGACTTATT; listed as DNA, chemistry not given here) [compound 28]	68%
29 (TACATTAATGATAACTAAGG; listed as DNA, chemistry not given here) [compound 29]	68%
30 (AAGATTTTATAATTGCTCCT; listed as DNA, chemistry not given here) [compound 30]	71%
31 (CGATAAATGATGTGCTCAAA; listed as DNA, chemistry not given here) [compound 31]	36%
32 (CAGTGATTTGTCCAAACACA; listed as DNA, chemistry not given here) [compound 32]	30%
33 (ATTCATTCCAAGATTATGAC; listed as DNA, chemistry not given here) [compound 33]	75%
34 (TTAATAGCAAGCTTTGAAAG; listed as DNA, chemistry not given here) [compound 34]	68%
35 (GGGTCTGTGGCAAGACAGCT; listed as DNA, chemistry not given here) [compound 35]	65%
36 (TCTTTGCTCCACAGGAACAA; listed as DNA, chemistry not given here) [compound 36]	77%
37 (CAATGGATGAATTATGAACT; listed as DNA, chemistry not given here) [compound 37]	62%
38 (TCCGTATCCTTTAGTCTCAC; listed as DNA, chemistry not given here) [compound 38]	80%
39 (TTCCTTCTTTCTCCAGCCTA; listed as DNA, chemistry not given here) [compound 39]	81%
40 (GTGAGGGAACTATATAAAGG; listed as DNA, chemistry not given here) [compound 40]	66%
41 (AGGAATTAAGTTTCCCTGAG; listed as DNA, chemistry not given here) [compound 41]	74%

Substance	% INHIB
42 (AAAATTTTACGATCCATACC; listed as DNA, chemistry not given here) [compound 42]	72%
43 (CTGGAACATCTGATCCTAGC; listed as DNA, chemistry not given here) [compound 43]	77%
44 (CAAATGTCTCCACAGTGATT; listed as DNA, chemistry not given here) [compound 44]	79%
45 (GCTATTGTGAACGAATGTCA; listed as DNA, chemistry not given here) [compound 45]	86%
46 (CAAGATTCTAGAGTATGATG; listed as DNA, chemistry not given here) [compound 46]	85%
47 (ATCATGTCATACCTTTCCTT; listed as DNA, chemistry not given here) [compound 47]	81%
48 (GGGAGGCTCTTCCTCTTCAT; listed as DNA, chemistry not given here) [compound 48]	55%
49 (ACTGAAGCTTTCCACACAAA; listed as DNA, chemistry not given here) [compound 49]	52%
50 (TCCCACAAATGCCATTCCTG; listed as DNA, chemistry not given here) [compound 50]	78%
51 (AGAAAACCATTTCTTCCTTC; listed as DNA, chemistry not given here) [compound 51]	75%
52 (ATTATTGGCAGCTGATTAGT; listed as DNA, chemistry not given here) [compound 52]	79%
53 (GCACCACATTTTGTGCCTTC; listed as DNA, chemistry not given here) [compound 53]	74%
54 (CTGATTAGTCAGTTTTCACA; listed as DNA, chemistry not given here) [compound 54]	85%
55 (TCAATGCAGTATTCATTTCA; listed as DNA, chemistry not given here) [compound 55]	49%
56 (AAGAAGACCAGAAGTCCGTC; listed as DNA, chemistry not given here) [compound 56]	74%
57 (ATTCCTTTGGAGTACCACAG; listed as DNA, chemistry not given here) [compound 57]	81%
58 (GGTATCTCTTGTACATTCTC; listed as DNA, chemistry not given here) [compound 58]	18%
59 (GGGAACTGCTGAGGTTGCTT; listed as DNA, chemistry not given here) [compound 59]	46%
